Source: PubChem BioAssay (NCI)
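Interpolation was linear, between the two tested concentrations surrounding the appropriate level; five concentrations were tested over 48 hours in 96-well plates. The concentration for full growth arrest is given as TGI.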

Key:
Assay in all cases: NCI anticancer screen, dose series, 48 h
[1] = tested on: HCT-15 colon
[2] = tested on: MDA-MB-231 breast
[3] = tested on: NCI-H460 lung
[4] = tested on: OVCAR-5 ovarian
[5] = tested on: SF-539 CNS
[6] = tested on: SK-OV-3 ovarian
[7] = tested on: T-47D breast
[8] = tested on: U251 CNS
[9] = tested on: UACC-257 melanoma
[10] = tested on: UACC-62 melanoma

SMILES	TGI [1] [µM]	TGI [2] [µM]	TGI [3] [µM]	TGI [4] [µM]	TGI [5] [µM]	TGI [6] [µM]	TGI [7] [µM]	TGI [8] [µM]	TGI [9] [µM]	TGI [10] [µM]
O=C(Cc1ccc([N+](=O)[O-])cc1)OCC#CCOC(=O)Cc1ccc([N+](=O)[O-])cc1	> 10	> 10	> 10	> 10	> 10	> 10	> 10	> 10	> 10	> 10
O=C(Nc1ccccc1C(=O)NCCCO)/C(=C/c1ccccc1O)NC(=O)c1ccccc1	> 100	> 59.3	> 100	> 100	> 63.2	> 100	> 100	> 81.6	> 100	60
NC(=O)c1cc2ccccc2o/c1=N/O	> 100	> 100	> 100	–	> 100	> 100	> 100	> 100	> 100	> 100
COCc1nc2c(OC)cc(-c3nc4ccc(N5CCN(C)CC5)cc4[nH]3)c(OC)c2[nH]1	> 100	> 100	> 100	> 100	44.6	> 100	> 100	> 100	34.6	> 100
NC1CNC(=O)c2c(Cl)sc(Cl)c21 (stereo unspecified)	> 100	> 100	> 100	> 100	> 100	> 100	> 100	> 100	> 100	> 100
Brc1cccc(N=NN2CCCC2)c1	> 100	> 100	> 100	> 100	> 100	> 100	> 100	> 100	> 100	> 100
CCNC(=O)C1CCCN1C(=O)C(CCCN=C(N)N)NC(=O)C(CC(C)C)NC(=O)C(Cc1c[nH]c2ccccc12)NC(=O)C(Cc1ccc(O)cc1)NC(=O)C(CO)NC(=O)C(Cc1c[nH]c2ccccc12)NC(=O)C(Cc1cnc[nH]1)NC(=O)C1CCC(=O)N1 (stereo unspecified)	> 100	> 100	> 100	> 100	> 100	> 100	–	> 100	> 100	> 100
Clc1ccc(OCc2nnc(CCCCCCCCc3nnc(COc4ccc(Cl)cc4)n3Nc3ccccc3)n2Nc2ccccc2)cc1	> 100	> 100	> 100	> 100	40.1	> 100	> 100	> 87.4	> 100	38.8
Nc1ccc(S(=O)(=O)Nc2nc3ccccc3nc2N2CCCCC2)cc1	> 100	> 100	> 100	> 100	> 100	> 100	> 100	> 100	> 100	> 100
C=c1c(OC)c(OC)c(O)c2c1=c1cc([N+](=O)[O-])cc(OC)c1=N2	> 100	> 100	> 100	> 100	> 100	> 100	> 100	> 100	> 100	> 100
Nc1ccc2[nH]c(-c3cccc(Cl)c3)cc(=O)c2c1	> 100	> 100	> 100	> 100	5.15	> 100	> 100	70.4	> 100	> 100
CC1(C)CNC(=O)C2(C=NC(C)(C)CNC(=O)C3(C=N1)CCCO3)CCCO2 (stereo unspecified)	> 10	> 10	–	–	> 10	> 10	> 10	> 10	> 10	> 10
CC1(CNCc2ccccc2)CC(CCc2ccccc2)N(C(=O)c2ccc([N+](=O)[O-])cc2)C1Cc1ccc(O)cc1 (stereo unspecified)	26.3	24.4	30.8	34	35.2	34.6	18.8	26.2	27	28.9
N#Cc1cc2c(cc1Cl)Sc1nccn1S2(=O)=O	3.28	12.4	32.2	27.4	12.2	18.1	8.57	3.21	5.81	7.32
COC(=O)/C=C/c1cc(OC)c(OC)c(OC)c1	> 100	–	> 100	–	> 100	> 100	–	–	> 100	> 100
O=C(O)C(CO)NC(=O)n1c2ccccc2c2ccccc21 (stereo unspecified)	> 100	–	> 100	–	> 100	> 100	–	–	> 100	> 100
CC(C)(C)c1cc(/C=C(\C#N)C(=O)NCCO)cc(C(C)(C)C)c1O	58.6	43.9	43.5	62.8	38.3	60.2	76.8	39.9	35	27.5
COc1ccc(Nc2nc3c([nH]2)c(=O)n(C)c(=O)n3C)cc1	> 10	> 10	–	–	–	> 10	> 10	–	> 10	> 10
O=C(N/N=C/c1cc(Br)cc(Br)c1[O-])c1ccccc1O.O=C(N/N=C/c1cc(Br)cc(Br)c1[O-])c1ccccc1O.[Fe+2]	13.8	–	22.2	15.8	14.1	13.9	–	7.88	–	10.5
NC(N)=Nc1ncccc1[N+](=O)[O-]	> 100	–	> 100	> 100	> 100	> 100	–	> 31.6	> 31.6	> 100
C=CCOCCCCC(C(C)=O)C(=O)OC (stereo unspecified)	> 100	–	> 100	> 100	> 100	> 100	–	> 100	> 100	> 100
COc1ccc2cc(NC(=O)N/N=C\c3ccc(Cl)cc3)ccc2c1	> 100	> 100	> 100	> 100	> 100	> 100	–	> 100	> 100	> 100
Cn1c2ccccc2n2c(=O)c3cc([N+](=O)[O-])ccc3c(C#N)c12	> 100	–	> 100	> 100	> 100	> 100	> 100	> 100	> 100	> 100

SMILES	TGI [1] [µM]	TGI [2] [µM]	TGI [3] [µM]	TGI [4] [µM]	TGI [5] [µM]	TGI [6] [µM]	TGI [7] [µM]	TGI [8] [µM]	TGI [9] [µM]	TGI [10] [µM]
CN(C)S(=O)(=O)Nc1nnc(S(N)(=O)=O)s1	> 100	> 100	> 100	> 100	> 100	> 100	> 100	> 100	–	> 100
O=c1[nH]nc(-c2ccccc2)c2[nH]c(-c3ccccc3)cc12	> 100	–	–	> 100	–	> 100	> 100	–	–	–
CC(=O)OCC(OC(C)=O)C1C[C@H]2O[C@@H]3[C@H](C[C@H]2O1)O[C@@]1(C[C@@H]3C)C[C@H](C)[C@@H]2O[C@]3(C[C@@H]2O1)C[C@H]1O[C@H]2[C@H](C)[C@H]4OC(=O)CC5CC[C@H]6OC7[C@H]8O[C@]9(CC[C@H]%10CC(O)(CO)[C@H](CC[C@H]%11C[C@@H](C)C(O)(CO)C(C[C@@H]4O[C@H]2C[C@H]1O3)O%11)O%10)CC8O[C@@H]7[C@@H](O9)[C@H]6O5 (stereo partly specified)	–	> 1	> 1	> 1	–	> 1	–	> 1	> 1	> 1
Cc1cn(C(C)OCCN2C(=O)c3ccccc3C2=O)c(=O)[nH]c1=O (stereo unspecified)	> 100	> 100	> 100	> 100	> 100	–	> 100	> 100	> 100	> 100
OC1(c2ccc(Cl)cc2)c2ccc3ccccc3c2C2=N[C@H]3CCCC[C@@H]3N21 (stereo partly specified)	28.3	> 100	> 100	57.2	43.7	65.3	26.5	27.9	–	41.4
CC1(C(=O)O)CCCC1C(=O)O (stereo unspecified)	> 100	> 100	> 100	> 100	–	–	> 100	> 100	> 100	> 100
COc1c(Br)cc(CC(N)=O)c(O)c1Br	–	–	–	> 100	> 100	> 100	–	> 100	> 100	> 100
CSc1nc2c(c(=O)n1C)N=C(c1ccccc1)[C@H](C(CC(=O)c1ccccc1)c1ccccc1)C(c1ccccc1)N2 (stereo partly specified)	> 100	> 100	> 100	> 100	> 100	–	–	> 100	> 100	> 100
CC1S/C(=N/c2nnc(-c3ccccc3)o2)NC1=O (stereo unspecified)	> 100	> 100	–	> 100	> 100	–	> 100	> 100	> 100	> 100
CCN1CCC(O)(C(C(=O)O)c2ccccc2)CC1 (stereo unspecified)	> 100	> 100	> 100	> 100	–	> 100	> 100	> 100	> 100	> 100
COC(=O)C1=Nc2c(C)nn(-c3ccccc3)c2N=C(c2ccc([N+](=O)[O-])cc2)C1	> 10	> 10	–	> 10	> 10	> 10	> 10	> 10	> 10	> 10
CC1(C)OCC2OC3([C@H]4OC(C)(C)O[C@@H]4CO)OC(C)(C)OC3C2O1 (stereo partly specified)	> 100	> 100	> 100	> 100	> 100	–	> 100	> 100	> 100	> 100
COc1ccc2c(c1)CC1=C(O2)c2ccc(OC)cc2OC1	36.8	89.6	–	> 100	85.1	> 100	37.5	39.9	37.8	39.2
COC(=O)C1CC2(c3ccccc3)C(=O)c3ccccc3N2O1 (stereo unspecified)	> 100	–	> 100	> 100	> 100	> 100	–	> 100	> 100	> 100
O=[N+]([O-])c1ccc(-c2ccc(-c3csc(Nc4ccccn4)n3)o2)cc1	> 100	–	–	> 100	–	> 100	–	28.5	> 100	> 100
COc1ccc(-c2c(C#N)c(N)nc3c2CCS(=O)(=O)c2ccccc2-3)cc1	> 100	> 100	> 100	–	–	–	> 100	> 100	> 100	> 100
C=C1C(=O)O[C@@]23C1CC[C@@H](C)C2CC[C@@]1(C)OC31 (stereo partly specified)	30.3	–	35.2	26.7	12.2	47.6	19.2	19.3	24.4	27.1
CCOC(=O)C(CC#Cc1ccc(C#CCC(NC(C)=O)C(=O)OCC)cc1)NC(C)=O (stereo unspecified)	> 100	> 100	> 100	> 100	> 100	> 100	> 100	–	> 100	> 100
O=C(O)C(CS)N=c1c2ccccc2n(O)c2ccccc12 (stereo unspecified)	> 100	–	> 100	> 100	–	> 100	–	> 100	> 100	> 100
Cc1c2ncccc2cc2oc3ccccc3c(=O)c12	> 100	> 100	> 100	59.7	> 100	> 100	61.7	–	> 100	> 100
O=c1c(-c2ccc(Cl)cc2)nnc2n(Cc3ccccc3)c3ccccc3n12	> 100	67.8	> 100	> 100	37.9	–	> 100	72.7	> 100	–
C=C1CC(C)(c2ccc(Nc3nc4ccccc4c4occc34)cc2)OC1=O (stereo unspecified)	4.73	6.35	51.5	30.6	4.5	24.1	6.85	38.9	0.164	–
